Source: patent US10385103B2, “Cell-permeable (ICP)-SOCS3 recombinant protein and uses thereof” (CELLIVERY THERAPEUTICS, INC., priority 2014, dated 2019)

System: RAW 264.7 cells
Assay: Quantitative cell-permeability of FITC-labeled aMTD- or rPeptide-fused CRA recombinant proteins (flow cytometry)
Format: cell-based
Conditions: for Relative Ratio to aMTD AVE: cell-permeability of rPeptide-fused CRA recombinant protein relative to average of 240 aMTDs
Source text: The aMTDs and rPeptides were fluorescently labeled and compared based on the critical factors for cell-permeability by using flow cytometry and confocal laser scanning microscopy (FIGS. 5 to 8). The cellular uptake of the peptide-fused non-functional cargo recombinant proteins could quantitatively be evaluated in flow cytometry, while confocal laser scanning microscopy allows intracellular uptake to be assessed visually. The analysis included recombinant proteins fused to a negative control [rP38] that has opposite characteristics (hydrophilic and aromatic sequence: […] NO: 952)) to the aMTDs (hydrophobic and aliphatic sequences). Relative cell-permeability (relative fold) of aMTDs to the negative control was also analyzed (Table 23 and FIG. 9). […] RAW 264.7 cells were treated with 10 μM FITC-labeled recombinant proteins for 1 hour at 37° C., washed three times with cold PBS, treated with 0.25% tripsin/EDTA (Sigma-Aldrich, St. Louis, Mo.) for 20 minutes at 37° C. to remove cell-surface bound proteins. Cell-permeability of these recombinant proteins were analyzed by flow cytometry (Guava, Millipore, Darmstadt, Germany) using the FlowJo cytometric analysis software (FIGS. 5 to 6).

[1] = cell-permeability of aMTD-fused CRA recombinant protein relative to negative control (A: rP38)
[2] = cell-permeability of aMTD-fused CRA recombinant protein relative to reference CPP (B: MTM12)
[3] = cell-permeability of aMTD-fused CRA recombinant protein relative to reference CPP (C: MTD85)
[4] = cell-permeability relative to negative control rP38 (A type), aMTD-fused CRA recombinant protein, 10 μM FITC-labeled, 1 hour, 37° C., RAW 264.7 cells
[5] = cell-permeability relative to reference CPP MTD85 (C type), aMTD-fused CRA recombinant protein, 10 μM FITC-labeled, 1 hour, 37° C., RAW 264.7 cells
[6] = cell-permeability relative to reference CPP MTM12 (B type), aMTD-fused CRA recombinant protein, 10 μM FITC-labeled, 1 hour, 37° C., RAW 264.7 cells
[7] = 10 μM FITC-labeled, 1 hour, 37° C., RAW 264.7 cells

Substance	Relative Ratio (Fold) A [1] [Fold]	Relative Ratio (Fold) B [2] [Fold]	Relative Ratio (Fold) C [3] [Fold]	Relative Ratio (Fold) A [4] [Fold]	Relative Ratio (Fold) C [5] [Fold]	Relative Ratio (Fold) B [6] [Fold]	Relative Ratio to aMTD AVE [7]
341 (IVAVALPAVLAP; Amino acid Sequence of aMTD341) [compound 341]	16.4	10.9	5.5	–	–	–	–
342 (VIVALAPAVLAP; Amino acid Sequence of aMTD342) [compound 342]	12.7	8.5	4.3	–	–	–	–
343 (IVAVALPALVAP; Amino acid Sequence of aMTD343) [compound 343]	19.4	12.9	6.5	–	–	–	–
345 (ALLIVAPVAVAP; Amino acid Sequence of aMTD345) [compound 345]	8.9	5.9	3.0	–	–	–	–
361 (AVVIVAPAVIAP; Amino acid Sequence of aMTD361) [compound 361]	16.0	10.7	5.4	–	–	–	–
364 (LVAAVAPALIVP; Amino acid Sequence of aMTD364) [compound 364]	–	–	–	6.5	2.2	4.3	–
365 (AVIVVAPALLAP; Amino acid Sequence of aMTD365) [compound 365]	9.3	6.2	3.1	9.3	3.1	6.2	–
382 (AAALVIPAILAP; Amino acid Sequence of aMTD382) [compound 382]	17.7	11.8	6.0	–	–	–	–
383 (VIVALAPALLAP; Amino acid Sequence of aMTD383) [compound 383]	11.6	7.7	3.9	–	–	–	–
384 (VIVAIAPALLAP; Amino acid Sequence of aMTD384) [compound 384]	14.0	9.4	4.7	–	–	–	–
385 (IVAIAVPALVAP; Amino acid Sequence of aMTD385) [compound 385]	38.8	25.9	13.1	–	–	–	–
390 (VPLLVPVVPVVP; Amino acid Sequence of rPeptide ID 390) [compound 390]	–	–	–	–	–	–	0.41
391 (VVAIVLPAVAAP; Amino acid Sequence of aMTD381) [compound 391]	11.5	7.7	3.9	–	–	–	–
401 (AALAVIPAAILP; Amino acid Sequence of aMTD401) [compound 401]	10.6	7.1	3.6	–	–	–	–
402 (ALAAVIPAAILP; Amino acid Sequence of aMTD402) [compound 402]	–	–	–	6.4	2.2	4.3	–
403 (AAALVIPAAILP; Amino acid Sequence of aMTD403) [compound 403]	25.2	16.8	8.5	–	–	–	–
404 (LAAAVIPAAILP; Amino acid Sequence of aMTD404) [compound 404]	18.9	12.6	6.4	–	–	–	–
405 (LAAAVIPVAILP; Amino acid Sequence of aMTD405) [compound 405]	22.2	14.8	7.5	–	–	–	–
421 (AAILAAPLIAVP; Amino acid Sequence of aMTD421) [compound 421]	–	–	–	6.7	2.3	4.5	–
422 (VVAILAPLLAAP; Amino acid Sequence of aMTD422) [compound 422]	19.6	13.1	6.6	–	–	–	–
424 (AVVVAAPVLALP; Amino acid Sequence of aMTD424) [compound 424]	–	–	–	6.6	2.2	4.4	–

Substance	Relative Ratio (Fold) A [1] [Fold]	Relative Ratio (Fold) B [2] [Fold]	Relative Ratio (Fold) C [3] [Fold]	Relative Ratio (Fold) A [4] [Fold]	Relative Ratio (Fold) C [5] [Fold]	Relative Ratio (Fold) B [6] [Fold]	Relative Ratio to aMTD AVE [7]
425 (AVVAIAPVLALP; Amino acid Sequence of aMTD425) [compound 425]	9.4	6.3	3.2	–	–	–	–
426 (AAALAIPLAIIP; Amino acid Sequence of rPeptide ID 426) [compound 426]	–	–	–	–	–	–	0.40
442 (ALAALVPAVLVP; Amino acid Sequence of aMTD442) [compound 442]	20.4	12.6	6.9	–	–	–	–
443 (ALAALVPVALVP; Amino acid Sequence of aMTD443) [compound 443]	8.0	5.3	2.7	–	–	–	–
444 (LAAALVPVALVP; Amino acid Sequence of aMTD444) [compound 444]	8.1	5.4	2.7	–	–	–	–
445 (ALAALVPALVVP; Amino acid Sequence of aMTD445) [compound 445]	–	–	–	6.9	2.3	4.6	–
461 (IAAVIVPAVALP; Amino acid Sequence of aMTD461) [compound 461]	19.0	12.7	6.4	–	–	–	–
462 (IAAVLVPAVALP; Amino acid Sequence of aMTD462) [compound 462]	–	–	–	6.3	2.1	4.2	–
463 (AVAILVPLLAAP; Amino acid Sequence of aMTD463) [compound 463]	17.6	11.7	5.9	–	–	–	–
464 (AVVILVPLAAAP; Amino acid Sequence of aMTD464) [compound 464]	22.3	14.9	7.5	–	–	–	–
465 (IAAVIVPVAALP; Amino acid Sequence of aMTD465) [compound 465]	7.4	4.9	2.5	–	–	–	–
466 (IIAAAAPLAIIP; Amino acid Sequence of rPeptide ID 466) [compound 466]	–	–	–	–	–	–	0.52
482 (ILAVAAIPVAVP; Amino acid Sequence of aMTD482) [compound 482]	15.8	10.6	5.3	–	–	–	–
483 (ILAAAIIPAALP; Amino acid Sequence of aMTD483) [compound 483]	–	–	–	6.8	2.3	4.5	–
484 (LAVVLAAPAIVP; Amino acid Sequence of aMTD484) [compound 484]	15.8	10.4	5.3	–	–	–	–
485 (AILAAIVPLAVP; Amino acid Sequence of aMTD485) [compound 485]	–	–	–	6.8	2.3	4.5	–
501 (VIVALAVPALAP; Amino acid Sequence of aMTD501) [compound 501]	21.5	14.4	7.2	–	–	–	–
502 (AIVALAVPVLAP; Amino acid Sequence of aMTD502) [compound 502]	–	–	–	5.6	1.9	3.7	–
504 (LIVALAVPALAP; Amino acid Sequence of aMTD504) [compound 504]	–	–	–	3.3	1.1	2.2	–
505 (AIIIVIAPAAAP; Amino acid Sequence of aMTD505) [compound 505]	12.4	8.3	4.2	–	–	–	–
